Test results published in publication PMC6580095, “C8-substituted pyrido[3,4-d]pyrimidin-4(3H)-ones: Studies towards the identification of potent, cell penetrant Jumonji C domain containing histone lysine demethylase 4 subfamily (KDM4) inhibitors, compound profiling in cell-based target engagement assays” (European Journal of Medicinal Chemistry, 2019).
In brackets after ≈: the same amount, converted by molar mass. Like-named read-outs stand apart in the source and are kept apart here.

Legend:
KDM5 = details: H3K4Me3 levels in PC9 cells; cited from earlier work
KDM5B [1] = molecular target: T1, KDM5B (Homo sapiens, UniProt Q9UGL1); experiment: cell-based
T1 sequence (Q9UGL1 26-772): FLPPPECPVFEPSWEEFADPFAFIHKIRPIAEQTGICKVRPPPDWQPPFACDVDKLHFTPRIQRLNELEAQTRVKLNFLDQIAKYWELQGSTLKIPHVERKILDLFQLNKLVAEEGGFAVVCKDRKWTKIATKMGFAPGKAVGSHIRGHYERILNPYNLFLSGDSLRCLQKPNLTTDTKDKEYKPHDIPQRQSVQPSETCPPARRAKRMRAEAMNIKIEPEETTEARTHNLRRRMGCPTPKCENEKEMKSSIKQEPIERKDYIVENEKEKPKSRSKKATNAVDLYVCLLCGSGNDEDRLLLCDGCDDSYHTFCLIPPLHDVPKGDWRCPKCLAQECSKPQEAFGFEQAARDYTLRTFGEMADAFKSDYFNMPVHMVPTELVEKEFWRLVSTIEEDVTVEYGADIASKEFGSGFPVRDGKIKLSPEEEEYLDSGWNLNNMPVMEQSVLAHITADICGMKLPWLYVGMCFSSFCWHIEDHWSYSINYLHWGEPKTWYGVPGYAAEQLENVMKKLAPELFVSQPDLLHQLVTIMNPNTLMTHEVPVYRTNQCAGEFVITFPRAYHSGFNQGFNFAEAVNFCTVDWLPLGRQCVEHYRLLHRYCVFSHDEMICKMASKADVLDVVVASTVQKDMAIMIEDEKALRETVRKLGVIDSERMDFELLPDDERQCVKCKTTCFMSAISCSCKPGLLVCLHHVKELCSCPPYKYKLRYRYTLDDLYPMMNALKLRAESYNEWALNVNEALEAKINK

KDM5B [2] = molecular target: KDM5B (Homo sapiens, UniProt Q9UGL1); experiment: cell-based; remark: listed apart in the source
Target sequence in this assay (Q9UGL1 whole entry): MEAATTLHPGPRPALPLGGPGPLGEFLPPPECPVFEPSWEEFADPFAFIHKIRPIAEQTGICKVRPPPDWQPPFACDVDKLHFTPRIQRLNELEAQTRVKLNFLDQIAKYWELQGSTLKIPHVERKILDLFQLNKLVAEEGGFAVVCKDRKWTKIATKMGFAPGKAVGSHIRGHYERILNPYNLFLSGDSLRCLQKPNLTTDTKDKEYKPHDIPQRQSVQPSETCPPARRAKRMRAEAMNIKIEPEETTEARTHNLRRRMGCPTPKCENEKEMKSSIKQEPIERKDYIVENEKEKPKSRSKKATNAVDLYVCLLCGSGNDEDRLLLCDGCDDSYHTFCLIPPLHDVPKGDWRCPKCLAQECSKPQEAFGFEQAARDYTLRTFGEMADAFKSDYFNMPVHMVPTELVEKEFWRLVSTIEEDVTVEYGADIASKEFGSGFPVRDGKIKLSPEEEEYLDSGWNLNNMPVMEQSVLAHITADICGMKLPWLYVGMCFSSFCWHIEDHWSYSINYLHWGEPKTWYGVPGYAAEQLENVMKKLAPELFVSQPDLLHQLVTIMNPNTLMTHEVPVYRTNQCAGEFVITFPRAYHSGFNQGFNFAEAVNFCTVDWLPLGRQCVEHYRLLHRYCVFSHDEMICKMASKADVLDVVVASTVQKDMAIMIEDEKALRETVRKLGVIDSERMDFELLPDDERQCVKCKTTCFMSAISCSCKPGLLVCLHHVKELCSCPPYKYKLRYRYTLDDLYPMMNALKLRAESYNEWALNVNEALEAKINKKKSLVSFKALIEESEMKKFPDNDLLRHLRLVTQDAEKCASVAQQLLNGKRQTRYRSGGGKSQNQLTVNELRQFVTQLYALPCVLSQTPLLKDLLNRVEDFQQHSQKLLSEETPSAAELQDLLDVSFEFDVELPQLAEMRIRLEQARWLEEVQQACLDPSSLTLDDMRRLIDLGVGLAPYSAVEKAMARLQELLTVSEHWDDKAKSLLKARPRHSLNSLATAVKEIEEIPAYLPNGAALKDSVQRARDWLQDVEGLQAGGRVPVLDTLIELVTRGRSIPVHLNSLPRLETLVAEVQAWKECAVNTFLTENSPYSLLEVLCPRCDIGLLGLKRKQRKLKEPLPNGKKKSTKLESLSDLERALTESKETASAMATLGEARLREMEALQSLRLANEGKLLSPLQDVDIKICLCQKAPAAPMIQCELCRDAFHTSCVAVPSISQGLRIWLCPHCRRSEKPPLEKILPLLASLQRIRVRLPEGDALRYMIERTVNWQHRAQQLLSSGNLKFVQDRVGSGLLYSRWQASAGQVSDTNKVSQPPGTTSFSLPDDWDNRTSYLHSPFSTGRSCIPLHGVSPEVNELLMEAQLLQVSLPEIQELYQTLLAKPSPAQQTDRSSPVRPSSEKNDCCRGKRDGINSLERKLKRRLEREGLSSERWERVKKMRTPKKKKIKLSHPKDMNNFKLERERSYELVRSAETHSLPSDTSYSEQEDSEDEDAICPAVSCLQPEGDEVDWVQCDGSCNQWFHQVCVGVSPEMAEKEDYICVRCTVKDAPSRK

LNCaP cells = experiment: Cell uptake and stability in LNCaP cellular culture; type: in vitro ADME, human; details: 10 μM, up to 120 h
Description: Following 1, 6, 24, 48, 72 and 120 h incubation, media was collected from cells and immediately frozen at −80 °C. Cells were trypsinised, pelleted and then frozen at −80 °C until analysis.
Cell and tissue culture media extracts were analysed using a Dionex Ultimate 3000 UHPLC system coupled to a Thermo Scientific Q Exactive Plus orbitrap mass spectrometer (Thermo Fisher Scientific Inc., Waltham, USA). Separation of analytes was achieved using an Acquity UPLC HSS T3 column (1.8 μm, 100 × 2.1 mm) (Waters, Elstree, UK) at a temperature of 50 °C and a binary mobile phase gradient at a flow rate of 0.4 mL/min. […] Sample analysis was by electrospray atmospheric pressure ionization combined with full scan acquisition in positive ion mode. […] Full MS/dd-MS^2 (full MS scan followed by data dependent MS/MS) and Full MS/AIF (full MS scan followed by all ion fragmentation) workflows were used in combination. Identification/presence of metabolites was undertaken with the aid of the software Compound Discoverer (v2.0.0.303, Thermo Fisher Scientific Inc., Waltham, USA).

[3] = Kinetic aqueous solubility
[4] = Human plasma protein binding
[5] = In vitro intrinsic microsomal clearance, rat; details: microsomes
[6] = In vitro intrinsic microsomal clearance, mouse; details: microsomes
[7] = In vitro intrinsic microsomal clearance, human; details: microsomes

Row | EC50 (KDM5B [1]) [µM] | EC50 (KDM5B [2]) [µM] | Compound | EC50 (KDM5) [µM] | cell uptake (LNCaP cells) | stability in cellular culture (metabolites in cells or media) (LNCaP cells) | solubility kinetic [3] [µM] | fraction unbound [4] | microsomal CLint [5] [µL/min/mg] | microsomal CLint [6] [µL/min/mg] | microsomal CLint [7] [µL/min/mg]
1 | 0.3 | 0.6 | CC(C)c1c(-c2cnn(C(C)(C)C)c2)[nH]c2c(C#N)cnn2c1=O [Compound 6] | 0.34 |  |  |  |  |  |  | 
2 |  |  | O=c1[nH]cnc2c(-n3cc(CCN4CCC5(CCc6ccccc65)CC4)cn3)nccc12 [Compound 19a, 8-(4-(2-(2,3-Dihydrospiro[indene-1,4′-piperidin]-1′-yl)ethyl)-1H-pyrazol-1-yl)pyrido[3,4-d]pyrimidin-4(3H)-one] |  | uptake of the parent compounds in a time-dependent manner | no metabolites detected | 93.3 (≈ 39.8 µg/mL) | 0.11 | 19.8 | 7.5 | 24.7
3 |  |  | O=c1[nH]cnc2c(-n3cc(CCN4CCC5(CCc6ccccc65)CC4)cn3)cccc12 [Compound 41] |  | uptake of the parent compounds in a time-dependent manner | no metabolites detected |  |  |  |  | 
